Data reported in ChEMBL document CHEMBL1139168, “Pyrrolidino-tetrahydroisoquinolines as potent dual H3 antagonist and serotonin transporter inhibitors” (Bioorg Med Chem Lett, 2007).
pKi: −log10 of the molar value.

What was measured:
[1] = biological target: Sodium-dependent serotonin transporter (Rattus norvegicus, UniProt P31652); test: Displacement of [3H]citalopram from rat brain SERT
[2] = biological target: Histamine H3 receptor (Homo sapiens, UniProt Q9Y5N1); test: Binding affinity at human histamine H3 receptor expressed in SK-N-MC cells
Sequence of Histamine H3 receptor (Q9Y5N1 whole entry): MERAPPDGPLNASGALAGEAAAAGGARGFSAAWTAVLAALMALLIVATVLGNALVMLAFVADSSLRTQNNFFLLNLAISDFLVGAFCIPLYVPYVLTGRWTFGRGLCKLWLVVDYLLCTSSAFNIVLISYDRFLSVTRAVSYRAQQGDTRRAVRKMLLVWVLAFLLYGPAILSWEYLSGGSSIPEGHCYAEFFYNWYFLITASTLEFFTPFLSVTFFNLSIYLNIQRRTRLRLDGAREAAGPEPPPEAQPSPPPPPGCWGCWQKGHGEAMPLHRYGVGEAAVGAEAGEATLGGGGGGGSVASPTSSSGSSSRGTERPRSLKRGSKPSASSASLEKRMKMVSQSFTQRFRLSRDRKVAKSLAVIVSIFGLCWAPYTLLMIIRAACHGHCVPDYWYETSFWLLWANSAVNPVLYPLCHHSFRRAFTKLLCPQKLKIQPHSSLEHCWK

[3] = test system: Mus musculus; test: Inhibition of SERT in ip dosed 5-hydroxytryptophan potentiated head twitch mouse model assessed as increase in head twitches after 24 hrs; type: functional, organism-based
[4] = test system: Mus musculus; test: Inhibition of SERT in 5-hydroxytryptophan potentiated head twitch mouse model assessed as increase in head twitch response at 3 mg/kg, ip relative to control; type: functional; set-up: scale not given: the % may be the effect or the level left; settings: route intraperitoneal
[5] = test system: Mus musculus; test: Inhibition of SERT in 5-hydroxytryptophan potentiated head twitch mouse model assessed as increase in head twitch response at 10 mg/kg, ip relative to control; type: functional; set-up: scale not given: the % may be the effect or the level left; settings: route intraperitoneal
[6] = Half life in rat at 1 mg/kg, iv or 10 mg/kg, po; type: ADME, organism-based; settings: in vivo
[7] = Bioavailability in rat 10 mg/kg, po; type: ADME, organism-based; settings: in vivo
[8] = test system: Rattus norvegicus; test: Increase in extracellular serotonin level in rat brain frontal cortex at 1 mg/kg, ip after 8 hrs relative to basal level; type: functional; settings: route intraperitoneal
[9] = test system: Rattus norvegicus; test: Increase in extracellular dopamine level in rat brain frontal cortex at 1 mg/kg, ip after 8 hrs relative to basal level; type: functional; settings: route intraperitoneal
[10] = test system: Rattus norvegicus; test: Increase in extracellular serotonin level in rat brain frontal cortex at 1 mg/kg, ip after 24 hrs relative to basal level; type: functional; settings: route intraperitoneal
[11] = test system: Rattus norvegicus; test: Increase in extracellular dopamine level in rat brain frontal cortex at 1 mg/kg, ip after 24 hrs relative to basal level; type: functional; settings: route intraperitoneal
[12] = Cmax in mouse brain at 30 mg/kg, ip

Sequence of Sodium-dependent serotonin transporter (P31652 whole entry): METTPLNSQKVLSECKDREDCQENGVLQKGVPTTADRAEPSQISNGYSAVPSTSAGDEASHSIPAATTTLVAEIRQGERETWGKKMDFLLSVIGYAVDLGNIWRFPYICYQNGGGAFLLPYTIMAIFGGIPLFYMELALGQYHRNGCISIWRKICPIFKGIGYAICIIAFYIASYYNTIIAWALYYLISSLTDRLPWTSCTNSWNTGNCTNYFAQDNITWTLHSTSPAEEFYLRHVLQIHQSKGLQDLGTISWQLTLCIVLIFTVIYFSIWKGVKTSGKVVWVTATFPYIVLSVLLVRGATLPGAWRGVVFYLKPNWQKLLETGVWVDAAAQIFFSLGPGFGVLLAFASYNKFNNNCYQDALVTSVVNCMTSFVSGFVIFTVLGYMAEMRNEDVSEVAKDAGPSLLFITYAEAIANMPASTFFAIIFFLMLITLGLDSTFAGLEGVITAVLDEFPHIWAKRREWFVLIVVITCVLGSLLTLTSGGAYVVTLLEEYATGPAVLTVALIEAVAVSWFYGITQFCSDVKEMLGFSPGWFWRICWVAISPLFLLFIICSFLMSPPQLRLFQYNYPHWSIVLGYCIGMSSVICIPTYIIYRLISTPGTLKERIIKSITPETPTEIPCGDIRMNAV

Structure (SMILES) | pKi [1] | pKi [2] | other results
CSc1ccc(C2CN3CCCC3c3cc(OCCCN4CCCCC4)ccc32)cc1 (racemic) | 8.48 | 8.60 | –
Oc1ccc(C2CN3CCCC3c3cc(OCCCN4CCCCC4)ccc32)cc1 (racemic) | 8.03 | 8.77 | –
COc1cccc(C2CN3CCCC3c3cc(OCCCN4CCCCC4)ccc32)c1 (racemic) | 8.33 | 8.77 | –
O=[N+]([O-])c1ccc(C2CN3CCCC3c3cc(OCCCN4CCCCC4)ccc32)cc1 (racemic) | 8.28 | 8.89 | –
c1ccc(C2CN3CCCC3c3cc(OCCCN4CCCCC4)ccc32)cc1 (racemic) | 8.70 | 9.05 | –
Oc1ccccc1C1CN2CCCC2c2cc(OCCCN3CCCCC3)ccc21 (racemic) | 7.68 | 8.43 | –
COc1ccccc1C1CN2CCCC2c2cc(OCCCN3CCCCC3)ccc21 (racemic) | 7.85 | 8.89 | –
FC(F)(F)c1cccc(C2CN3CCCC3c3cc(OCCCN4CCCCC4)ccc32)c1 (racemic) | 7.66 | 8.70 | –
FC(F)(F)c1ccc(C2CN3CCCC3c3cc(OCCCN4CCCCC4)ccc32)cc1 (racemic) | 7.57 | 8.33 | –
COc1ccc(C2CN3CCCC3c3cc(OCCCN4CCCCC4)ccc32)cc1 (racemic) | – | – | Activity [3]: Dose-dependent effect; Activity [4]: 384%; Activity [5]: 661%; half-life [6]: 15.7 h; bioavailability [7]: 16%; Activity [8]: 500%; Activity [9]: 300%; Activity [10]: 500%; Activity [11]: 300%; Cmax [12]: 1280 nM
C#Cc1ccc(C2CN3CCCC3c3cc(OCCCN4CCCCC4)ccc32)cc1 (racemic) | 8.15 | 8.40 | –
N#Cc1ccc(C2CN3CCCC3c3cc(OCCCN4CCCCC4)ccc32)cc1 (racemic) | 7.61 | 8.92 | –
Cc1ccc(C2CN3CCCC3c3cc(OCCCN4CCCCC4)ccc32)cc1 (racemic) | 8.52 | 8.70 | –
Fc1ccc(C2CN3CCCC3c3cc(OCCCN4CCCCC4)ccc32)cc1 (racemic) | 8.43 | 8.77 | –
C#Cc1cccc(C2CN3CCCC3c3cc(OCCCN4CCCCC4)ccc32)c1 (racemic) | 8.06 | 8.70 | –
Clc1cccc(C2CN3CCCC3c3cc(OCCCN4CCCCC4)ccc32)c1 (racemic) | 8.40 | 8.92 | –
Clc1ccccc1C1CN2CCCC2c2cc(OCCCN3CCCCC3)ccc21 (racemic) | 8.06 | 8.64 | –
FC(F)(F)Oc1ccc(C2CN3CCCC3c3cc(OCCCN4CCCCC4)ccc32)cc1 (racemic) | 7.96 | 8.40 | –
Clc1ccc(C2CN3CCCC3c3cc(OCCCN4CCCCC4)ccc32)cc1 (racemic) | 8.20 | 8.66 | –
Oc1cccc(C2CN3CCCC3c3cc(OCCCN4CCCCC4)ccc32)c1 (racemic) | 8.89 | 9.15 | –
CN(C)c1ccc(C2CN3CCCC3c3cc(OCCCN4CCCCC4)ccc32)cc1 (racemic) | 8.48 | 8.80 | –
